From patent US10408843B2, “Compositions and methods for detecting S-nitrosylation and S-sulfinylation” (The Regents of the University of Michigan, priority 2013, dated 2019) come the findings set out here.

The assay concerns S-nitrosylated proteins in mammalian cell lysates. The assay is described as follows: Gel-based labeling of endogenous S-nitrosylated proteins in cell lysates. The class given is biochemical, human. As to conditions: lysates denatured, alkylated with iodoacetamide; streptavidin detection. On the procedure: FIG. 8. Dose-dependent labeling of S-nitrosylated proteins by biotin-SO2H. 293T and PANC1 cells were lysed in 6 M urea/PBS and alkylated with 50 mM iodoacetamide for 30 minutes, followed by incubation with increasing concentrations of biotin-SO2H for 45 minutes.
Next, the reactivity of sulfinic acids with native S-nitrosylated proteins was examined. Biotin and fluorescein N-hydroxysuccinimide (NHS) esters were directly coupled to the biological sulfinic acid metabolite hypotaurine (biotin-SO2H) or the sulfonic acid metabolite taurine (biotin-SO3H). Each probe was incubated with mammalian cell lysates pre-alkylated with excess iodoacetamide (FIG. 1b) in 6 M urea/phosphate buffered saline (PBS), and separated by non-reducing SDS-PAGE for transfer to nitrocellulose and streptavidin detection. […]
Cells and lysates were protected from light and kept on ice throughout the labeling protocol, except when noted. […] Lysate protein concentrations were quantified using the Bio-Rad DC assay, and diluted 3 mg/mL in 6 M urea/PBS. […] For in-gel fluorescence analysis, samples were loaded without boiling using non-reducing SDS-PAGE loading buffer for SDS-PAGE separation. […] In-gel fluorescence and streptavidin blots were analyzed using a GE typhoon scanner at appropriate wavelengths (488/526 for fluorescein and 633/670 for Cy5-Streptavidin).

Structures are written as SMILES.

`O=C(CCCC[C@@H]1SC[C@@H]2NC(=O)N[C@@H]21)NCCS(=O)O` [biotin-SO2H, 2-(5-((3aS,4S,6aR)-2-oxohexahydro-1H-thieno[3,4-d]imidazol-4-yl)pentanamido)ethanesulfinic Acid]: the “labeling of mammalian proteins” value is recorded as “labels distinct mammalian proteins”.
